Assay results as given in paper PMC5294771, “Antidiabetic effects of Brucea javanica seeds in type 2 diabetic rats” (BMC Complementary and Alternative Medicine, 2017).
Read-outs that look alike come from different tables or passages of the source. Marks after values point to notes of the source that are not given here.

How the values were obtained:
α-glucosidase = α-glucosidase (Saccharomyces cerevisiae, UniProt P53341); experiment: α-glucosidase inhibition assay (pNPG); assay type: biochemical
Sequence of α-glucosidase (P53341 whole entry): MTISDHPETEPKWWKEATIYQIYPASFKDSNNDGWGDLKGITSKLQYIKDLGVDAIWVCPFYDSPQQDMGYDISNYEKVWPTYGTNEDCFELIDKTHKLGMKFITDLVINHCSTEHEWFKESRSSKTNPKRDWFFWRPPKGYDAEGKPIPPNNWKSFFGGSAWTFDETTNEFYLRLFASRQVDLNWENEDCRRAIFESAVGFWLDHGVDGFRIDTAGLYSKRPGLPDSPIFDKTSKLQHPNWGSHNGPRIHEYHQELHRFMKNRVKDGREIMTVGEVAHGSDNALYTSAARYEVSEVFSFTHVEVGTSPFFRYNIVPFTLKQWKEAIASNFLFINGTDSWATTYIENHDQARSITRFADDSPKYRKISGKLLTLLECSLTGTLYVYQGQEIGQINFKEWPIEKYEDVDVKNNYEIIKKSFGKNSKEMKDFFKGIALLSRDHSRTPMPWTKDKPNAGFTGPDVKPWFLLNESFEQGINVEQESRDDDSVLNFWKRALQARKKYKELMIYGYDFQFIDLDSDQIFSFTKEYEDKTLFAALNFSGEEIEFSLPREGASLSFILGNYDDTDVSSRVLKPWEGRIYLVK
Description: The fractions from B. javanica seeds were evaluated as GP-α inhibitors and were further tested for their α-glucosidase inhibitory activity as described previously. Briefly, 50 μL of samples or standard were mixed with 100 μL of α-glucosidase (0.1 U/mL) in phosphate buffer (0.1 M, pH 6.9) and incubated at 37 °C for 10 min. The reactions were initiated by addition of p-Nitrophenyl α-D-Glucoside (p-NPG, 50 μL) in phosphate buffer (0.1 M, pH 6.9) and incubated again at 37 °C for 30 min. The reactions were terminated using NaCO3 (1 M, 50 μL). […] Phosphate buffer (50 μL) was used as control. Blank readings (without substrate) were subtracted from specific sample wells and the percentage of α-Glucosidase inhibition (αGI) was calculated as following formula: αGI (%) = [(Acontrol – Asample)/Acontrol] × 100 [22].
α-glucosidase inhibition activity of isolated compounds were determined according to the method described in section 2.3 and GP-α inhibition activity was measured according to our previously reported method.

[1] = target: T1, glycogen phosphorylase α (GP-α) (Oryctolagus cuniculus, UniProt P00489); experiment: GP-α inhibition assay; assay type: biochemical
T1 sequence (P00489 2-843 limits assumed): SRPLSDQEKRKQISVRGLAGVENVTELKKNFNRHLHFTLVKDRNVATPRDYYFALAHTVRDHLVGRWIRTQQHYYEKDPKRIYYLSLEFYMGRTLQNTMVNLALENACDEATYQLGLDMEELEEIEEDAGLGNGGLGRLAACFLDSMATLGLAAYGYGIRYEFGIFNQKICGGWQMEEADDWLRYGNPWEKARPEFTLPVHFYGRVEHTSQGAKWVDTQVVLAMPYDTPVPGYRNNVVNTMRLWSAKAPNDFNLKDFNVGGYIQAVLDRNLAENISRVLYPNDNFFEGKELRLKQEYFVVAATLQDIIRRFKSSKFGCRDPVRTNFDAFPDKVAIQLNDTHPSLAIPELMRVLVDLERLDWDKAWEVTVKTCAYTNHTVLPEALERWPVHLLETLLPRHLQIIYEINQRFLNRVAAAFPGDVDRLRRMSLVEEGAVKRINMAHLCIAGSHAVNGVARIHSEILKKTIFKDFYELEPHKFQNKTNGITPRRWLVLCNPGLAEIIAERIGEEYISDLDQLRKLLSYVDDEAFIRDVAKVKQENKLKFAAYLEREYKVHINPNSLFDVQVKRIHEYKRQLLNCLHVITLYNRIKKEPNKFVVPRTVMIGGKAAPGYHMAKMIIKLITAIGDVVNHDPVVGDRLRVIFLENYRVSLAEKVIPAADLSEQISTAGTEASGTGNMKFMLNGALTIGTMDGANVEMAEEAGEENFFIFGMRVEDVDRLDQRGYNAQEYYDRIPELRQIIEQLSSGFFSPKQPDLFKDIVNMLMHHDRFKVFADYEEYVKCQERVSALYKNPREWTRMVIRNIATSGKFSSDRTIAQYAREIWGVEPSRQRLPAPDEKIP

[2] = test system: STZ-induced diabetic rats; details: 1 mg/kg b.w., 0-8 h screening; cited from earlier work
nondiabetic mice = details: 1 mg/kg b.w., 0-8 h screening; cited from earlier work
[3] = test system: NA-STZ induced type 2 diabetic (T2D) rats; experiment: Serum cytokine levels (ELISA) in T2D rats; assay type: in vivo, Sprague Dawley (SD) rats; details: 10 mg/kg b.w.
Description: (§1) At the end of study period, rats were fasted overnight, anesthetized, and the blood sample was collected by cardiac puncture. At the end, the rats were sacrificed by cervical dislocation. The blood sample was centrifuged 2000 x g for 15 minute at 4 °C, serum was collected and stored at −80 °C until analyses. The liver was carefully removed, washed in ice-cold phosphate buffered saline (PBS, pH 7.4) to remove the blood. A piece of liver sample was rinsed in liquid nitrogen, stored at −80 °C for glycogen assay.
The quantification of cytokine in the serum was assessed by enzyme-linked immunosorbent assay (ELISA) using commercial kits for rat TNF-α, rat IL-6, and rat IL-1β (eBioscience, San Diego, CA USA) according to the manufacturer’s instructions.

[4] = test system: NA-STZ induced type 2 diabetic (T2D) rats; experiment: Oral glucose tolerance test (OGTT) in T2D rats; assay type: in vivo, Sprague Dawley (SD) rats; details: 10 mg/kg
Description: On the 25th day of treatment, the OGTT was carried out according to the previously reported method. All animals were fasted overnight (16 h) before commencing the experiments. Group I (non-diabetic control) and Group II (diabetic control) weretreated with distilled water, Group III and Group IV were given EAF (25 and 50 mg/kg b.w), and Group V was given glibenclamide (10 mg/kg b.w.) using oral gavage, respectively. After 30 min, α-D-glucose (2 g/kg b.w.) was administered orally into all groups of rats. Blood samples were collected from the tail vein at 0 (immediately after glucose load), 30, 60, 90, and 120 min, and blood glucose levels were determined by glucose oxidase method using a commercial glucose meter (Roche, USA). […] AUCglucose=C1+C2/2×t2−t1
Where, C1 and C2 are concentrations of glucose at different time points; t1 and t2 are different tested time points.

[5] = test system: NA-STZ induced type 2 diabetic (T2D) rats; experiment: Serum MDA and GSH levels in T2D rats; assay type: in vivo, Sprague Dawley (SD) rats; details: 10 mg/kg
Description: as §1
The malondialdehyde (MDA), a byproduct of lipid peroxidation, and glutathione (GSH), a marker of antioxidant defense, were quantified by commercial kit (Cayman chemical company, Ann Arbor, MI, USA) according to the manufacturer’s instructions.

Body weights in T2D rats = assay type: in vivo, Sprague Dawley (SD) rats; details: 10 mg/kg/day b.w. oral
Description: (§2) After diabetes was confirmed, rats were divided into specific groups which were mentioned in the section of treatment protocol above. Fasting blood glucose (FBG) levels and body weight of rats were measured and it was considered as 0 day. The extracts and standard drug were administered orally on a daily base in single dose for 28 days. At the end of each week, animals were fasted overnight and body weights were recorded using electronic balance. Blood samples were obtained from the tail vein of the rats by Accu-Chek FastClix lancing device and blood glucose levels were analysed using glucose meter (Accu-check, Roche Diagnostics, USA).

[6] = test system: NA-STZ induced type 2 diabetic (T2D) rats; experiment: Serum insulin levels and HOMA-IR in T2D rats; assay type: in vivo, Sprague Dawley (SD) rats; details: 10 mg/kg, 4 weeks, not significant
Description: as §1
The serum insulin levels were quantified by using rat insulin ELISA kit (Mercodia AB, Uppsala, Sweden) according to the manufacturer’s instructions. Insulin resistance (IR) was calculated according to the homeostasis model assessment by using the following equation [24] HOMA−IR=glucosemmol/L×insulinμU/mL/22.5

[7] = test system: NA-STZ induced type 2 diabetic (T2D) rats; experiment: Liver and renal function markers in T2D rats; assay type: in vivo, Sprague Dawley (SD) rats; details: 10 mg/kg b.w., 4 weeks, serum
Description: as §1
(§3) The levels of serum total cholesterol (TC), triglycerides (TG), low density lipoprotein cholesterol (LDL-C), and high density lipoprotein cholesterol (HDL-C), total protein, alkaline phosphatase (ALP), alanine aminotransferase (ALT), aspartate aminotransferase (AST), urea, creatinine were analyzed using automatic biochemical analyzer (Beckman-700, Fullerton, CA, USA)

[8] = test system: NA-STZ induced type 2 diabetic (T2D) rats; experiment: Liver glycogen contents in T2D rats; assay type: in vivo, Sprague Dawley (SD) rats; details: 10 mg/kg b.w.
Description: as §1
The glycogen contents in the liver were measured using a glycogen assay kit (Ann Arbor, MI, USA) according to the manufacturer’s instructions.

[9] = test system: NA-STZ induced type 2 diabetic (T2D) rats; experiment: Serum lipid profiles in T2D rats; assay type: in vivo, Sprague Dawley (SD) rats; details: 10 mg/kg, 4 weeks
Description: as §1, §3

[10] = test system: NA-STZ induced type 2 diabetic (T2D) rats; experiment: Fasting blood glucose levels in NA-STZ T2D rats, 28-day oral treatment; assay type: in vivo, Sprague Dawley (SD) rats; details: for Fasting blood glucose level: 10 mg/kg/day b.w. oral
Description: The experimental rats were fasted overnight (16 h) and diabetes was induced by single intraperitoneal (i.p) injection of STZ (60 mg/kg b.w.) freshly prepared in 0.1 M citrate buffer (pH 4.5) 15 min after i.p injection of NA (100 mg/kg b.w.) dissolved in normal saline. Diabetes was confirmed 3 weeks after NA-STZ induction by measuring tail vein blood glucose levels using glucose meter (Accu-check Performa, Rochi diagnostic, USA). The rats having blood glucose levels higher than 11 mmol/L were considered as diabetic and selected for study.
The experimental rats were divided into 5 groups (n = 6; 3 M/3 F) as following. Group I: non-diabetic control (NDC) and Group II: diabetic control (DC) consisted of rats were allowed to free access of water; Group III and IV were treated orally with EAF (25 and 50 mg/kg/day b.w.) diluted in distilled water, Group V was treated orally with Glibenclamide (10 mg/kg/day b.w.) and served as standard drug. All groups except group 1 are diabetic. The selected doses (25 and 50 mg/kg/day b.w) were based on prior acute oral toxicity study.
as §2

[11] = isolated compounds, read-out: Glycogen phosphorylase α IC50

COc1cc(C(=O)O)ccc1O [Compound 1, vanillic acid]
α-glucosidase inhibition (α-glucosidase): no inhibition
α-glucosidase inhibition (α-glucosidase; concentrations tested up to 6 mM): did not inhibit
GP-α inhibition [1]: no inhibition
inhibition at 12000 µM ([1]; at 12 mM): 22.9%

CC1=CC(=O)[C@@H](O)[C@]2(C)[C@H]3[C@@H](O)[C@H](O)[C@]4(C)OC[C@@]35[C@@H](C[C@@H]12)OC(=O)[C@H](O)[C@]54O [Compound 2, bruceine D]
blood glucose effect [2]: blood glucose lowering effect
α-glucosidase inhibition (α-glucosidase): no inhibition
inhibitory activity against α-glucosidase (α-glucosidase; at 2.5 mM): 14.74%
GP-α inhibition [1]: no inhibition
blood glucose effect (nondiabetic mice): blood glucose lowering effect

CC1=C[C@H](O)[C@@H](O)[C@]2(C)[C@H]3[C@@H](O)[C@H](O)[C@@]4(C)OC[C@@]35[C@@H](C[C@@H]12)OC(=O)[C@H](O)[C@]54O [Compound 3, bruceine E]
blood glucose effect [2]: blood glucose lowering effect
α-glucosidase inhibition (α-glucosidase): no inhibition
inhibition at 2500 µM (α-glucosidase; at 2.5 mM, read-out: inhibitory activity against α-glucosidase): 16.1%
GP-α inhibition [1]: no inhibition
inhibition at 5000 µM ([1]; at 5 mM, read-out: inhibitory activity against GP-α): 32.7%
blood glucose effect (nondiabetic mice): blood glucose lowering effect

O=C(O)c1ccc(O)cc1 [Compound 4, Para-hydroxybenzoic acid]
IC50 [1, 11]: 357.88 ± 0.07 µM

O=c1cc(-c2ccc(O)c(O)c2)oc2cc(O)cc(O)c12 [Compound 5, luteolin]
α-glucosidase inhibitory potency relative to acarbose (α-glucosidase; vs acarbose): 5.5 fold
IC50 [1, 11]: 45.08 ± 0.04 µM
GP-α inhibitory potency relative to caffeine ([1]; vs caffeine): 10 fold

O=C(O)c1ccc(O)c(O)c1 [Compound 6, protocatechuic acid]
IC50 [1, 11]: 297.37 ± 0.13 µM

O=C(O)c1cc(O)c(O)c(O)c1 [Compound 7, gallic acid]
IC50 [1]: 214.38 ± 0.12 µM

COc1ccc(Cl)cc1C(=O)NCCc1ccc(S(=O)(=O)NC(=O)NC2CCCCC2)cc1 [Glibenclamide, glibenclamide]
IL-1β [3]: 570.67 ± 31.71^b pg/ml
IL-6 [3]: 123.06 ± 10.18^b pg/ml
TNF-α [3]: 70.10 ± 4.00^b pg/ml
decrease of AUC for glucose 0 to 120 min compared to DC group [4]: 57.42%
OGTT blood glucose reduction at 120 min compared to the values at 30 min ([4]; day 25, glucose 2 g/kg): 29.97%
reduction of serum MDA level compared to DC group [5]: about 36.45%
increase of serum GSH level compared to DC group ([5]; not significant): about 18.94%
Body Weight (Body weights in T2D rats; 0 Day): 211.00 ± 6.19 g
Body Weight (Body weights in T2D rats; Day 7): 203.50 ± 8.90 g
Body Weight (Body weights in T2D rats; Day 14): 205.83 ± 7.31 g
Body Weight (Body weights in T2D rats; Day 21): 206.00 ± 6.64 g
Body Weight (Body weights in T2D rats; Day 28): 209.33 ± 7.91 g
increase of serum insulin compared to diabetic control group [6]: 16.5%
ALP [7]: 146.67 ± 10.50 U/L
ALT [7]: 58.17 ± 4.52 U/L
AST [7]: 138.83 ± 8.33 U/L
Creatinine [7]: 29.00 ± 0.93 µmol/L
Urea [7]: 10.37 ± 1.80 mmol/L
LG (liver glycogen) [8]: 11.55 ± 1.82 mg/g tissue
Serum HDL [9]: 1.31 ± 0.08^a mmol/L
Serum LDL [9]: 0.59 ± 0.04^a mmol/L
Serum TC [9]: 1.12 ± 0.05^c mmol/L
Serum TG [9]: 0.52 ± 0.09^b mmol/L
reduction of FBG levels compared to initial day ([10]; 10 mg/kg b.w. once a day for 28 days): 45.44%
Fasting blood glucose level ([10]; 0 Day): 16.90 ± 1.63 mmol/L
Fasting blood glucose level ([10]; Day 7): 17.63 ± 2.13 mmol/L
Fasting blood glucose level ([10]; Day 14): 12.97 ± 0.72 mmol/L
Fasting blood glucose level ([10]; Day 21): 11.83 ± 1.27 mmol/L
Fasting blood glucose level ([10]; Day 28): 9.22 ± 0.65^a mmol/L
